Literature values as cited in patent publication US10285597B2 (dated 2019).

Details: TOL relative to TOSS (Ain=1 by definition); according to Bouillon et al., Anesthesiology 2004; 101: A503

Compound: CC(C)c1cccc(C(C)C)c1O [propofol]
- C50 ratio of propofol for the tolerance of laryngoscopy as well as tolerance of shaking and loud shouting (stimulus intensity Ain for TOL): 2.83
